Laboratory results reported in patent publication US8349333B2, “Allergy inhibitor compositions and kits and methods of using the same” (China Agricultural University, priority 2005, dated 2013).

Experiments:
cats [1] = test: Dermatological scores of control cats treated with nitenpyram; assay type: in vivo; conditions: control groups, FIG. 5
Procedure: (§1) To determine relationship of infestation and FAD symptom, 10 cats were separated into three groups, including an experimental group with six cats and two control groups with two cats each. One control group was treated nitenpyram, and another was not treated with the nitenpyram. Each experimental cat was lived separated on day 0 and infested with 100 fleas. After two days, all cats in this group were given the nitenpyram to remove the flea from their bodies. Two of the control cats were also given this medicine on day 0. This challenge cycle was repeated every other week for 7 times
Cats were scored by the dermatological assessments two days after ceasing each infestation. The assessments were included erythema, papules, crusts, scale, alopecia, excoriation. The body of each cat was divided into three portions to assess which part might have the most severe clinical outcome. According the previous documented report, three parts were consisted of: (1) back, from the head to the tail of dorsal surface; (2) double lateral abdomen, from the scapula to the tail; (3) chest and underside, from laryngeal to the caudomedial thighs.

cats [2] = test: Blood smear cell counts of control cats treated with nitenpyram; assay type: in vivo
Procedure: as §1
The anti-coagulant peripheral blood at 2 ml was collected on days 0, 2, 16, 30, 44, 58, 62 from the experiment group and day 0, 14, 28, 42, 56, 60 from the control groups. The same samples were collected after the immunization. A drop of blood was smeared on a clean glass slide. After the smear was dried, the cells were stained with Wright-Giemsa stain for 15 min. After a rinse in deionized water, the smear was gently dried with Kimwipe paper and dehydrated by 96% and 100% ethonol with each 10 seconds treatment. The slide was then treated with xylene for 30 min.
After the staining, nucleus and cytoplasm of blood cell was distinguished by a blue and pink staining. The percentage of each type of cells was counted by a total number of 200 cells in a view under a light microscope.

[3] = peripheral blood, control group with nitenpyram, day 58

SMILES: CCN(Cc1ccc(Cl)nc1)/C(=C/[N+](=O)[O-])NC [nitenpyram]
- dermatology score, cats treated with nitenpyram compared with the ones without treatment (cats [1]): no significant difference
- interference with the cell numbers in the cats' peripheral blood (cats [2]; comparison of the two control groups): not to interfere
- Basophils (%) (cats [2]; [3]): 0.7%
- Eosinophils (%) (cats [2]; [3]): 3.4%
- Lymphocytes (%) (cats [2]; [3]): 21.8%
- Monocytes (%) (cats [2]; [3]): 3.6%
- Neutrophils (%) (cats [2]; [3]): 70.5%
